Measurements from the supplement of paper PMC6045584.
± gives the standard deviation of the averaged measurements.

Legend:
[1] = compound: CS(=O)(=O)CCNCc1ccc(-c2ccc3ncnc(Nc4ccc(OCc5cccc(F)c5)c(Cl)c4)c3c2)o1 [LAPATINIB]; assay: surviving fraction relative to DMSO-only wells; higher = less growth inhibition; conditions: exposure time: 5 days
How it was run: (§1)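 Tumour cell lines were grown to log phase and seeded at 250–500 cells per well in 384-well plates. They were exposed continuously to inhibitors at 0.5, 1, 5, 10, 50, 100, 500 and 1000 nM for five days, beginning 24 hours after seeding. Surviving fraction is CellTiter-Glo luminescence normalised to the median of DMSO-only wells.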

[2] = compound: CN(C)CC[C@H](CSc1ccccc1)Nc1ccc(S(=O)(=O)NC(=O)c2ccc(N3CCN(Cc4ccccc4-c4ccc(Cl)cc4)CC3)cc2)cc1[N+](=O)[O-] [ABT-737]; assay: as above; conditions: exposure time: 5 days
How it was run: as §1

| Test System | surviving fraction ([1]; 0.5 nM) | surviving fraction ([1]; 1 nM) | surviving fraction ([1]; 5 nM) | surviving fraction ([1]; 10 nM) | surviving fraction ([1]; 50 nM) | surviving fraction ([1]; 100 nM) | surviving fraction ([1]; 500 nM) | surviving fraction ([1]; 1000 nM) | surviving fraction ([2]; 0.5 nM) | surviving fraction ([2]; 1 nM) | surviving fraction ([2]; 5 nM) | surviving fraction ([2]; 10 nM) | surviving fraction ([2]; 50 nM) | surviving fraction ([2]; 100 nM) | surviving fraction ([2]; 500 nM) | surviving fraction ([2]; 1000 nM) |
| --- | --- | --- | --- | --- | --- | --- | --- | --- | --- | --- | --- | --- | --- | --- | --- | --- |
| 22RV1 PROSTATE | 1.01 ± 0.05 | 1.1 ± 0.096 | 0.954 ± 0.076 | 1.01 ± 0.1 | 1.04 ± 0.034 | 1.07 ± 0.085 | 1.08 ± 0.12 | 1.11 ± 0.059 | 0.997 ± 0.07 | 1.13 ± 0.22 | 1.03 ± 0.063 | 0.995 ± 0.079 | 1.07 ± 0.086 | 1.03 ± 0.13 | 1.1 ± 0.042 | 0.96 ± 0.097 |
| 93VU HEADNECK | 1.04 ± 0.13 | 1.09 ± 0.11 | 1.07 ± 0.018 | 1.12 ± 0.069 | 0.806 ± 0.021 | 0.827 ± 0.045 | 0.493 ± 0.039 | 0.438 ± 0.041 | 1.146 ± 0.0083 | 1.09 ± 0.057 | 1.21 ± 0.19 | 1.16 ± 0.031 | 1.23 ± 0.069 | 1.17 ± 0.09 | 1.12 ± 0.09 | 1.04 ± 0.074 |
| 143B BONE | 0.986 ± 0.065 | 1.07 ± 0.057 | 0.931 ± 0.14 | 0.967 ± 0.11 | 1.01 ± 0.013 | 1.08 ± 0.11 | 1.02 ± 0.016 | 1.01 ± 0.021 | 1.08 ± 0.042 | 1.09 ± 0.027 | 1.14 ± 0.092 | 1.11 ± 0.071 | 1.13 ± 0.054 | 1.115 ± 0.0057 | 1.12 ± 0.037 | 1.14 ± 0.064 |
| A549 LUNG | 1.038 ± 0.0095 | 1.14 ± 0.044 | 1.06 ± 0.02 | 1.07 ± 0.016 | 1.02 ± 0.043 | 1.06 ± 0.05 | 1 ± 0.041 | 1.02 ± 0.036 | 1.06 ± 0.012 | 1.05 ± 0.022 | 1.07 ± 0.023 | 1.06 ± 0.03 | 1.07 ± 0.039 | 1.09 ± 0.039 | 1.12 ± 0.044 | 1.05 ± 0.053 |
| ASKA SYNOVIAL | 1.17 ± 0.046 | 1.1 ± 0.012 | 1.13 ± 0.045 | 1.16 ± 0.053 | 1.21 ± 0.092 | 1.19 ± 0.069 | 1.16 ± 0.1 | 1.15 ± 0.068 | 1.15 ± 0.031 | 1.19 ± 0.044 | 1.2 ± 0.027 | 1.16 ± 0.047 | 1.1 ± 0.05 | 1.11 ± 0.076 | 0.914 ± 0.084 | 0.79 ± 0.066 |
| BT20 BREAST | 1.12 ± 0.065 | 1.128 ± 0.0092 | 1.05 ± 0.048 | 1.12 ± 0.05 | 1.14 ± 0.048 | 1.18 ± 0.054 | 1.16 ± 0.045 | 1.38 ± 0.068 | 1.2 ± 0.061 | 1.19 ± 0.089 | 1.15 ± 0.06 | 1.26 ± 0.06 | 1.14 ± 0.14 | 1.18 ± 0.13 | 1.14 ± 0.043 | 1.07 ± 0.064 |
| BT549 BREAST | 1.1 ± 0.073 | 1.01 ± 0.081 | 0.971 ± 0.044 | 1.06 ± 0.043 | 1.07 ± 0.1 | 1.03 ± 0.054 | 1.15 ± 0.14 | 0.977 ± 0.085 | 0.996 ± 0.018 | 0.867 ± 0.047 | 1.12 ± 0.075 | 0.782 ± 0.043 | 1.12 ± 0.029 | 0.771 ± 0.095 | 1.04 ± 0.16 | 0.841 ± 0.097 |
| C33A CERVIX | 0.988 ± 0.07 | 1.03 ± 0.041 | 1.11 ± 0.036 | 1.02 ± 0.045 | 0.887 ± 0.037 | 0.859 ± 0.017 | 0.62 ± 0.014 | 0.537 ± 0.017 | 0.932 ± 0.1 | 0.973 ± 0.088 | 1.08 ± 0.013 | 1.08 ± 0.12 | 1.02 ± 0.14 | 1.1 ± 0.09 | 0.927 ± 0.11 | 1.04 ± 0.15 |
| CADOES1 SOFT TISSUE | 0.959 ± 0.045 | 1.06 ± 0.096 | 0.976 ± 0.12 | 0.996 ± 0.16 | 0.958 ± 0.096 | 1.09 ± 0.097 | 1.13 ± 0.052 | 1.13 ± 0.094 | 0.92 ± 0.1 | 0.85 ± 0.18 | 0.915 ± 0.1 | 0.874 ± 0.039 | 0.748 ± 0.081 | 0.679 ± 0.068 | 0.679 ± 0.015 | 0.689 ± 0.049 |
| CAL51 BREAST | 0.966 ± 0.078 | 1.08 ± 0.024 | 1.03 ± 0.055 | 1.02 ± 0.04 | 0.994 ± 0.042 | 1.08 ± 0.032 | 1.02 ± 0.089 | 0.989 ± 0.03 | 1.03 ± 0.062 | 0.941 ± 0.066 | 1.07 ± 0.031 | 1.04 ± 0.02 | 1.04 ± 0.021 | 1.08 ± 0.086 | 1.09 ± 0.017 | 0.959 ± 0.048 |
| CAL72 BONE | 1.13 ± 0.081 | 1.1 ± 0.061 | 1.16 ± 0.083 | 1.11 ± 0.055 | 1.11 ± 0.015 | 1.12 ± 0.096 | 1.02 ± 0.077 | 0.951 ± 0.17 | 1.04 ± 0.13 | 1.06 ± 0.12 | 1.06 ± 0.1 | 1.05 ± 0.12 | 1.11 ± 0.14 | 1.06 ± 0.13 | 1.08 ± 0.12 | 1.06 ± 0.17 |
| CAL120 BREAST | 1.02 ± 0.052 | 1.03 ± 0.044 | 1.02 ± 0.043 | 1 ± 0.039 | 1.04 ± 0.042 | 1.03 ± 0.075 | 0.998 ± 0.052 | 0.994 ± 0.045 | 0.984 ± 0.03 | 0.9688 ± 0.0083 | 0.981 ± 0.051 | 0.984 ± 0.061 | 0.997 ± 0.018 | 0.998 ± 0.038 | 0.992 ± 0.012 | 0.773 ± 0.11 |
| CASKI CERVIX | 0.884 ± 0.037 | 0.902 ± 0.013 | 0.952 ± 0.042 | 0.818 ± 0.042 | 0.775 ± 0.044 | 0.685 ± 0.021 | 0.426 ± 0.013 | 0.321 ± 0.013 | 0.912 ± 0.075 | 0.896 ± 0.038 | 0.9707 ± 0.0083 | 0.937 ± 0.021 | 1.08 ± 0.015 | 1.06 ± 0.094 | 0.931 ± 0.092 | 0.715 ± 0.026 |
| CHLA90 AUTONOMIC GANGLIA | 0.964 ± 0.031 | 0.99 ± 0.07 | 1.01 ± 0.052 | 0.947 ± 0.051 | 0.965 ± 0.06 | 0.981 ± 0.11 | 0.931 ± 0.073 | 0.875 ± 0.11 | 0.98 ± 0.054 | 0.955 ± 0.068 | 0.961 ± 0.043 | 0.99 ± 0.091 | 1.02 ± 0.064 | 1.01 ± 0.12 | 0.979 ± 0.093 | 0.997 ± 0.13 |
| CME SYNOVIAL | 1.13 ± 0.2 | 1.4 ± 0.13 | 1.43 ± 0.1 | 1.28 ± 0.12 | 1.26 ± 0.096 | 1.35 ± 0.19 | 1.2 ± 0.059 | 1.14 ± 0.16 | 1.33 ± 0.17 | 1.37 ± 0.049 | 1.42 ± 0.099 | 1.37 ± 0.11 | 1.27 ± 0.23 | 1.42 ± 0.14 | 1.21 ± 0.099 | 1.23 ± 0.07 |
| COLO320DM LARGE INTESTINE | 1.01 ± 0.08 | 1.09 ± 0.016 | 1.14 ± 0.026 | 1.2 ± 0.082 | 1.06 ± 0.015 | 1.15 ± 0.083 | 1.1 ± 0.05 | 1.12 ± 0.075 | 1.09 ± 0.057 | 1.13 ± 0.085 | 1.04 ± 0.14 | 1.03 ± 0.12 | 1.19 ± 0.083 | 1.12 ± 0.03 | 1.21 ± 0.13 | 1.13 ± 0.055 |
| DU4475 BREAST | 0.907 ± 0.062 | 1.1 ± 0.13 | 1.02 ± 0.079 | 0.944 ± 0.017 | 1.07 ± 0.12 | 0.957 ± 0.11 | 1.14 ± 0.11 | 0.932 ± 0.025 | 0.935 ± 0.13 | 0.973 ± 0.042 | 0.943 ± 0.13 | 0.865 ± 0.1 | 0.797 ± 0.13 | 0.715 ± 0.012 | 0.373 ± 0.067 | 0.203 ± 0.047 |
| H23 LUNG | 1.02 ± 0.071 | 1.1 ± 0.075 | 0.9837 ± 0.0059 | 1.01 ± 0.019 | 0.861 ± 0.039 | 0.834 ± 0.031 | 0.4077 ± 0.0038 | 0.367 ± 0.023 | 1.01 ± 0.043 | 1.06 ± 0.077 | 1.05 ± 0.066 | 1.06 ± 0.017 | 1.07 ± 0.067 | 1.1 ± 0.087 | 1.08 ± 0.065 | 1.048 ± 0.004 |
| HCC78 LUNG | 0.98 ± 0.029 | 0.972 ± 0.093 | 1.01 ± 0.038 | 0.795 ± 0.26 | 0.82 ± 0.075 | 0.944 ± 0.1 | 0.857 ± 0.12 | 0.872 ± 0.12 | 0.9693 ± 0.0035 | 0.955 ± 0.076 | 0.969 ± 0.1 | 1.08 ± 0.15 | 1.04 ± 0.062 | 0.92 ± 0.2 | 0.967 ± 0.19 | 0.939 ± 0.2 |
| HCC202 BREAST | 1.3 ± 0.2 | 0.845 ± 0.19 | 1.17 ± 0.43 | 0.937 ± 0.17 | 0.905 ± 0.14 | 0.726 ± 0.31 | 0.383 | 0.221 ± 0.029 | 1.36 ± 0.084 | 1.17 ± 0.2 | 1.07 ± 0.069 | 1.43 ± 0.17 | 1.1 ± 0.16 | 1.31 ± 0.17 | 1.15 ± 0.5 | 0.965 ± 0.018 |
